# Reference: ChEMBL document CHEMBL1152069, “Synthesis and biological properties of carboranylaziridines bearing cascade polyols” (Bioorg Med Chem Lett, 1996)
# Columns and labels:
# [1] = Water solubility at 37 degree C.; assay type: ADME; conditions: buffer
# B16 [2] = assay: Compound was tested for cytotoxic activity against […] melanoma cells; assay type: functional, cell-based, Mus musculus
# [3] = Compound was tested for growth Inhibition against human TIG-1-20 fibroblast cells; assay type: functional, cell-based
# B16 [4] = assay: Compound was tested for growth Inhibition against B16 melanoma cells; assay type: functional, cell-based, Mus musculus
Compound,S [1],IC50 (B16 [2]),IC50 [3],IC50 (B16 [4])
CC1CN1CC(O)CC1CC1COC(COC(CO)CO)COC(CO)CO (centres undefined),"> 0.01 M,mol dme-3","0.00005 M,mol dme-3","0.000068 M,mol dme-3",
CC1CN1CC(O)CC1CC1COC(CO)CO (centres undefined),"0.0081 M,mol dme-3","0.000029 M,mol dme-3","0.000041 M,mol dme-3",
CC1CN1CC(O)CC1CC1 (centres undefined),"< 0.001 M,mol dme-3",,"0.000018 M,mol dme-3","5.4e-6 M,mol dme-3"
